Source: the NIST ThermoML archive (doi:10.1021/je050020m)

Experiment: xn = mol fraction of the nth substance listed
Settings: Liquid, Vibrating tube method

CCCCCCCCCC [decane] + O=C=O
Settings | mass density [kg/m3]
352.78 K, 12025 kPa, x2 = 0.0551 | 697.67
352.78 K, 13009 kPa, x2 = 0.0551 | 698.59
352.78 K, 14003 kPa, x2 = 0.0551 | 699.6
352.78 K, 15017 kPa, x2 = 0.0551 | 700.5
352.78 K, 16009 kPa, x2 = 0.0551 | 701.58
352.78 K, 17043 kPa, x2 = 0.0551 | 702.49
352.78 K, 18011 kPa, x2 = 0.0551 | 703.38
352.78 K, 18999 kPa, x2 = 0.0551 | 704.26
352.78 K, 19980 kPa, x2 = 0.0551 | 705.14
352.78 K, 21012 kPa, x2 = 0.0551 | 706.06
352.78 K, 22017 kPa, x2 = 0.0551 | 706.96
352.78 K, 23034 kPa, x2 = 0.0551 | 707.84
352.78 K, 24044 kPa, x2 = 0.0551 | 708.75
352.78 K, 24991 kPa, x2 = 0.0551 | 709.57
352.79 K, 6023 kPa, x2 = 0.2369 | 695.17
352.79 K, 7016 kPa, x2 = 0.2369 | 696.39
352.79 K, 8017 kPa, x2 = 0.2369 | 697.7
352.79 K, 9014 kPa, x2 = 0.2369 | 698.95
352.79 K, 10006 kPa, x2 = 0.2369 | 700.1
352.79 K, 11019 kPa, x2 = 0.2369 | 701.32
352.79 K, 12015 kPa, x2 = 0.2369 | 702.48
352.79 K, 13014 kPa, x2 = 0.2369 | 703.71
352.79 K, 14010 kPa, x2 = 0.2369 | 704.77
352.79 K, 15002 kPa, x2 = 0.2369 | 705.93
352.79 K, 16000 kPa, x2 = 0.2369 | 707.03
352.79 K, 17020 kPa, x2 = 0.2369 | 708.08
352.79 K, 18006 kPa, x2 = 0.2369 | 709.15
352.79 K, 19014 kPa, x2 = 0.2369 | 710.21
352.79 K, 19955 kPa, x2 = 0.2369 | 711.22
352.79 K, 21069 kPa, x2 = 0.2369 | 712.3
352.79 K, 22042 kPa, x2 = 0.2369 | 713.3
352.79 K, 23032 kPa, x2 = 0.2369 | 714.28
352.79 K, 24057 kPa, x2 = 0.2369 | 715.33
352.79 K, 24999 kPa, x2 = 0.2369 | 716.29
352.8 K, 8029 kPa, x2 = 0.4536 | 702.49
352.8 K, 9011 kPa, x2 = 0.4536 | 704.17
352.8 K, 10022 kPa, x2 = 0.4536 | 705.86
352.8 K, 11012 kPa, x2 = 0.4536 | 707.47
352.8 K, 12018 kPa, x2 = 0.4536 | 709.07
352.8 K, 13013 kPa, x2 = 0.4536 | 710.62
352.8 K, 14019 kPa, x2 = 0.4536 | 712.14
352.8 K, 15017 kPa, x2 = 0.4536 | 713.63
352.8 K, 16008 kPa, x2 = 0.4536 | 715.06
352.8 K, 17028 kPa, x2 = 0.4536 | 716.51
352.8 K, 18018 kPa, x2 = 0.4536 | 717.9
352.8 K, 19024 kPa, x2 = 0.4536 | 719.28
352.8 K, 20015 kPa, x2 = 0.4536 | 720.6
352.8 K, 21003 kPa, x2 = 0.4536 | 721.91
352.8 K, 22029 kPa, x2 = 0.4536 | 723.29
352.8 K, 23006 kPa, x2 = 0.4536 | 724.51
352.8 K, 24025 kPa, x2 = 0.4536 | 725.86
352.8 K, 25013 kPa, x2 = 0.4536 | 727.09
362.63 K, 15022 kPa, x2 = 0.8114 | 681.16
362.63 K, 16023 kPa, x2 = 0.8114 | 688.18
362.63 K, 17027 kPa, x2 = 0.8114 | 694.15
362.63 K, 18027 kPa, x2 = 0.8114 | 699.67
362.63 K, 19028 kPa, x2 = 0.8114 | 704.83
362.63 K, 20026 kPa, x2 = 0.8114 | 709.67
362.63 K, 21017 kPa, x2 = 0.8114 | 714.17
362.63 K, 22023 kPa, x2 = 0.8114 | 718.48
362.63 K, 23019 kPa, x2 = 0.8114 | 722.51
362.63 K, 24030 kPa, x2 = 0.8114 | 726.42
362.63 K, 25024 kPa, x2 = 0.8114 | 730.11
362.65 K, 5978 kPa, x2 = 0.2369 | 686.43
362.65 K, 7016 kPa, x2 = 0.2369 | 687.86
362.65 K, 8020 kPa, x2 = 0.2369 | 689.21
362.65 K, 9035 kPa, x2 = 0.2369 | 690.58
362.65 K, 10044 kPa, x2 = 0.2369 | 691.88
362.65 K, 11011 kPa, x2 = 0.2369 | 693.13
362.65 K, 12005 kPa, x2 = 0.2369 | 694.38
362.65 K, 13039 kPa, x2 = 0.2369 | 695.64
362.65 K, 14013 kPa, x2 = 0.2369 | 696.82
362.65 K, 15072 kPa, x2 = 0.2369 | 698.07
362.65 K, 15510 kPa, x2 = 0.9663 | 452.61
362.65 K, 16012 kPa, x2 = 0.2369 | 699.18
362.65 K, 16012 kPa, x2 = 0.9663 | 471.04
362.65 K, 17007 kPa, x2 = 0.9663 | 504.42
362.65 K, 17009 kPa, x2 = 0.2369 | 700.33
362.65 K, 18008 kPa, x2 = 0.2369 | 701.44
362.65 K, 18010 kPa, x2 = 0.9663 | 534.34
362.65 K, 19013 kPa, x2 = 0.9663 | 561.23
362.65 K, 19020 kPa, x2 = 0.2369 | 702.57
362.65 K, 20006 kPa, x2 = 0.2369 | 703.64
362.65 K, 20015 kPa, x2 = 0.9663 | 585.01
362.65 K, 21029 kPa, x2 = 0.9663 | 606.13
362.65 K, 21068 kPa, x2 = 0.2369 | 704.82
362.65 K, 22007 kPa, x2 = 0.2369 | 705.81
362.65 K, 22007 kPa, x2 = 0.9663 | 624.31
362.65 K, 23022 kPa, x2 = 0.9663 | 641.03
362.65 K, 23055 kPa, x2 = 0.2369 | 706.93
362.65 K, 24015 kPa, x2 = 0.9663 | 655.59
362.65 K, 24030 kPa, x2 = 0.2369 | 707.95
362.65 K, 25028 kPa, x2 = 0.9663 | 669.28
362.65 K, 25056 kPa, x2 = 0.2369 | 709.02
362.66 K, 2031 kPa, x2 = 0.0551 | 678.97
362.66 K, 3029 kPa, x2 = 0.0551 | 680.17
362.66 K, 4134 kPa, x2 = 0.0551 | 681.5
362.66 K, 5034 kPa, x2 = 0.0551 | 682.58
362.66 K, 6050 kPa, x2 = 0.0551 | 683.77
362.66 K, 7045 kPa, x2 = 0.0551 | 684.91
362.66 K, 8030 kPa, x2 = 0.0551 | 686.02
362.66 K, 9020 kPa, x2 = 0.0551 | 687.12
362.66 K, 9024 kPa, x2 = 0.4536 | 693.68
362.66 K, 10012 kPa, x2 = 0.4536 | 695.47
362.66 K, 10044 kPa, x2 = 0.0551 | 688.25
362.66 K, 11025 kPa, x2 = 0.0551 | 689.34
362.66 K, 11031 kPa, x2 = 0.4536 | 697.25
362.66 K, 11987 kPa, x2 = 0.0551 | 690.35
362.66 K, 12002 kPa, x2 = 0.4536 | 698.93
362.66 K, 13025 kPa, x2 = 0.0551 | 691.46
362.66 K, 13028 kPa, x2 = 0.4536 | 700.66
362.66 K, 14008 kPa, x2 = 0.4536 | 702.25
362.66 K, 14075 kPa, x2 = 0.0551 | 692.5
362.66 K, 15024 kPa, x2 = 0.4536 | 703.87
362.66 K, 15026 kPa, x2 = 0.0551 | 693.52
362.66 K, 16000 kPa, x2 = 0.4536 | 705.42
362.66 K, 16020 kPa, x2 = 0.0551 | 694.47
362.66 K, 17003 kPa, x2 = 0.0551 | 695.45
362.66 K, 17017 kPa, x2 = 0.4536 | 706.96
362.66 K, 18002 kPa, x2 = 0.4536 | 708.44
362.66 K, 18032 kPa, x2 = 0.0551 | 696.46
362.66 K, 19030 kPa, x2 = 0.0551 | 697.38
362.66 K, 19030 kPa, x2 = 0.4536 | 709.94
362.66 K, 19998 kPa, x2 = 0.0551 | 698.32
362.66 K, 20001 kPa, x2 = 0.4536 | 711.37
362.66 K, 21029 kPa, x2 = 0.4536 | 712.8
362.66 K, 21052 kPa, x2 = 0.0551 | 699.32
362.66 K, 22014 kPa, x2 = 0.4536 | 714.18
362.66 K, 22028 kPa, x2 = 0.0551 | 700.22
362.66 K, 22996 kPa, x2 = 0.0551 | 701.1
362.66 K, 23024 kPa, x2 = 0.4536 | 715.57
362.66 K, 24006 kPa, x2 = 0.4536 | 716.91
362.66 K, 24036 kPa, x2 = 0.0551 | 702.1
362.66 K, 25008 kPa, x2 = 0.0551 | 702.93
362.66 K, 25025 kPa, x2 = 0.4536 | 718.29
